Reference: US5015661A, “Chromanes and their pharmaceutical compositions and methods” (Hoffmann-La Roche Inc., priority 1989, dated 1991)
pIC50: −log10 of the molar value.

Experiments:
[1] = system: arachidonic acid-induced mouse ear edema; experiment: Mouse ear edema test (in vivo), arachidonic acid-induced; details: 1 mg topical, CD-1 male mice, 0.5 mg arachidonic acid 0.5 or 4 hours later, ear biopsy weight after 1 hour, read-out: EAR EDEMA % INHIB. 1 mg
Protocol: MOUSE EAR EDEMA TEST (IN VIVO)
In this animal model system, the application of arachidonic acid to the ear results in the biosynthesis of the metabolic products […]-6,8,11,14-eicosatetraenoic acid (5-HETE), leukotriene B4 (LTB4), leukotriene C4 (LTC4), […]-5,8,10,14-eicosatetraenoic acid (12-HETE), and prostaglandin E2 (PGE2) at the site of application, followed by the influx of neutrophils into the site and the rapid development of edema within 30 to 60 minutes (See, for instance, Young, Wagner and Spries, "Tachyphylaxis in 12-O-Tetradecanoylphorbol Acetate And Arachidonic Acid-Induced Ear Edma," J. Invest. Dermatol. 80:48 (1983) and Hames, Opas and Bonney, "Arachidonic Acid MetaboIites in Mouse Ear Edma" Advances in Inflammation Research. 11:57 (1986).
CD-1 male mice weighing 15 to 25 g were employed, and they were designated as follows: (1) Control Group, in which no arachidonic acid or test compound was to be applied, (2) Arachidonic Acid-Treated Group, in which no test compound was to be applied, and (3) Treated Group, in which the test compound was to be applied first, followed by the application of arachidonic acid.
In the case of the Group (3) animals, the test compound, dissolved in acetone, was applied to the dorsal surface of the right ear of the mouse with a 25-microliter pipette or, with the dose of the test compound being varied. After 0.5 hours in some cases and 4 hours in others, the arachidonic acid was topically applied in the same manner as above to the pretreated ear areas. In each case of arachidonic acid application, an amount of 0.5 mg dissolved in 25 microliters of acetone was used. After 1 hour, the mice were sacrificed by carbon dioxide inhalation. A 6mm-diameter standard biopsy punch was used to obtain a uniform tissue sample from the ear of each mouse so treated, and the tissue samples were weighted to the nearest 0.1 mg. The percent inhibition of ear edema formation was calculated as follows: [formula]

[2] = target: T1, Δ^5 -lipoxygenase from rat basophilic leukemia (RBL-1) cells (Rattus norvegicus, UniProt P12527); experiment: In vitro test for Δ^5 -lipoxygenase inhibitors (5-LO), RBL-1 cell enzyme, 5-HETE radioimmunoassay; type: biochemical; details: RBL-1 5-LO; 10 min preincubation; 8.25 μM arachidonic acid, 10 min at 37° C.; 5-HETE formation; read-out: 5-LO IC-50
T1 construct: endogenous in cells; host or cells: RBL-1 rat basophilic leukemia cells (ATCC CRL 1378); 113,000×g supernatant (cytosolic fraction)
T1 sequence (P12527 1-673): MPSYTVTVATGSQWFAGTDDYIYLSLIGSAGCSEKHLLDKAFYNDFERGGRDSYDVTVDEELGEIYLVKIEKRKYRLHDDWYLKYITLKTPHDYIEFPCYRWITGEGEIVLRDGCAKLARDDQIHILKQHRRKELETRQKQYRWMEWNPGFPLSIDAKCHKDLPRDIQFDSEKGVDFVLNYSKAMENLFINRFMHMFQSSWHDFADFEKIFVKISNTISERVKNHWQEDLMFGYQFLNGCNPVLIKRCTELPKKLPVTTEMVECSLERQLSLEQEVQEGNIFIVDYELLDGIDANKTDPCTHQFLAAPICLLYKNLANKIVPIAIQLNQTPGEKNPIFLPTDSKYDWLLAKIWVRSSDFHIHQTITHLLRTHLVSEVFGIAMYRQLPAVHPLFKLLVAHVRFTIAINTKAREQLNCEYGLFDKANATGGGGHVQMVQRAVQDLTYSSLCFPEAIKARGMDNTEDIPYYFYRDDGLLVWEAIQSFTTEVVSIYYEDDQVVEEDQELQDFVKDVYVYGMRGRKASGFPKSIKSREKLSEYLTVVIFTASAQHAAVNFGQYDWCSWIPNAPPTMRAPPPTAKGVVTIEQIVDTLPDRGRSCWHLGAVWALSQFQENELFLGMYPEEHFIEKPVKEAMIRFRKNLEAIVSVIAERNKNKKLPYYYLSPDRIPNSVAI
Protocol: IN VITRO TEST FOR Δ^5 -LIPOXYGENASE INHIBITORS Compounds of formula I of the invention were tested for their effect on Δ^5 -lipoxygenase from rat basophilic leukemia (RBL-1) cells. Materials. RBL-1 cells (CRL 1378) were obtained from the American TYpe Culture Collection, Rockville, MD. DMEM and glutamine were purchased from Flow Labs, McLean, VA. FBS (Gibco, Grand Island, NY) was heat-inactivated for 1 hour at 56° C. Reagents for protein determinations were obtained from Biorad, Rockville Center, NY. Arachidonic acid (approx. 99%), ATP (disodium slat), BHT, dextran (clinical grade), tetrasodium EDTA, gelatin, gentamycin sulfate solution, reduced glutathione, 1 M HEPES buffer, indomethacin, NaCl, reduced NADpH, Trizma 7.2, and Trizma 8.5 were purchased from Sigma Chemical, St. Louis, MO. CaCl2 dihydrate, Norit A charcoal, and citric acid monohydrate were obtained from Fisher Scientific, Pittsburgh, PA. […] MA. A synthetic 5-HETE standard was supplied by Dr. M. Rosenberger, Dept. of Medicinal Chemistry, Hoffmann-La Roche, Nutley, NJ; [see Corey, E.J., and Hashimoto, S. (1981 ) Tet. Letters, 22, 299-302 for method of preparation]. Ecoscint liquid sointillation fluid was purchased from National Diagnostics, Sommerville, NJ. Isolation of 5-lipoxygenase. […] Approximately 7-9 days after thawing, RBL-1 cells growing in log phase were seeded at a density of 7500 viable cells/ml in a closed 89-liter spinner flask. The cells were stirred constantly for 3-4 days at 37° C. until they reached a density greater than 500,000/ml but less than 800,00/ml. RBL-1 cells were harvested by centrifugation at 4° C. at 1500×g for 10 minutes and were washed 3 times with ice cold 0.05 M tris-HCl, pH 7.2, tetrasodium EDTA (buffer 1). The cells were washed last in 0.05 M Tris-HCl containing 14 μM indomethacin, 1 mM glutathione, 1.5 mM NaCl, and 1 mM tetrasodium EDTA (buffer 2), resuspended at a density of 5×108'/ml (approximately 10 ml) and disrupted manually at 4° C. using a 40 ml Dounce (type A pestle) homogenizer. After 5 minutes of homogenization. 95% cell lysis was confirmed by phase contrast microscopy. The broken cells were diluted 1:2 with buffer 2 and centrifuged at 12,380×g for 10 minutes at 4° C. to pellet cellular debris and granules. The 12,380×g supernatant was centrifuged at 113,000×g for 60 minutes to pellet microsomes. The high-speed supernatant (5.9±0.48 mg/ml protein) was frozen immediately in 1 ml aliquots using a dry ice/acetone bath. The isolated cytosolic fraction was stored in liquid N2 for up to 8 weeks without loss of 5-LO enzyme activity. Lipoxygenase Assay. Compounds Were dissolved at 25 mM concentration in DMSO, then diluted to final concentrations using 95% ethanol. For a typical enzyme assay, the partially purified 5-LO preparation was preincubated with drug or vehicle for 10 minutes at 30° C. The assay tubes were then transferred at a 37° C. water bath where they received arachidonic acid (8.25 μM final concentration) to initiate 5-LO activity. In addition to enzyme and substrate, each reaction tube contained: 12.5 μmoles of Tris-HCl (pH 7.2), 25 nmoles glutathione, 0.35 nmoles indomethacin and 1.25 μmoles of CaCl2 and ATP to yield a total of volume of 250 μl. The enzyme reaction was terminated after 10 minutes by the addition of 75μl […] citric acid to yield pH 3.5. The samples were immediately cooled on ice and neutralized by dilution with 0.05 M Tris-HCl, pH 8.5, which contained 25 mg/1 BHT. A boiled cytosol control was placed at the end of each assay to measure non-enzymatic oxidation of arachidonic acid. The mean specific activity of the 5-LO enzyme preparation was approximately 66.16±14.39 pmol 5-HETE/min/mg protein. Radioimmunoassay for 5-HETE. Under the assay conditions described, the 5-LO catalyzed the conversion of arachidonic acid to 5-HPETE which, as a consequence o peroxidase activity, was reduced to 5-HETE. A specific radioimmunoassay was employed to quantitate the amount (pmoles) of 5-HETE formed during the enzyme reaction. […]

SMILES | inhibition in vivo at 1 mg [1] [%] | pIC50 [2]
COc1cc(C=O)cc2cc(C3(C)CCc4c(C)c(O)c(C)c(C)c4O3)oc12 (racemic) [Example 54, rac-2-(3,4-Dihydro-6-hydroxy-2,5,7,8-tetramethyl-2H-1-benzopyran-2-yl)-7-methoxy-5-benzofurancarboxaldehyde] | 40 | 9.00
Cc1c(C)c2c(c(C)c1O)CCC(C)(CCc1ccccc1)O2 (stereo not shown) [Example 56, 3,4-Dihydro-2,5,7,8-tetramethyl-2-(2-phenylethyl)-2H-1-benzopyran-6-ol] | 64 | 6.96
